Assay results published in US7348402B2, “Antimicrobial peptide, its analogs and antimicrobial composition comprising them” (priority 2002, dated 2008).
No end group written: not given here.

How the values were obtained:
Format in all cases: cell-based
[1] = system: Bacillus subtilis (ATCC 62037); conditions: ATCC 62037, 12 h
Excerpt: (§1) The microorganisms used in the present invention include Gram-positive bacteria such as Bacillus subtilis (ATCC 62037), Staphylococcus aureus (ATCC 15752) and Streptococcus mutans (ATCC 25175), Gram-negative bacteria such as Escherichia coli (ATCC 27325), Salmonella enteritidis (ATCC 15277) and Pseudomonas putida (ATCC 17426) and fungi such as Candida albicans (ATCC 10231), Saccharomyces cerevisiae (ATCC 44774) and Cryptococcus neoformans (ATCC 34881), obtained from American Type Culture Collection (ATCC).
(§2) The antimicrobial activity of the peptides prepared in Example 1 was determined against microorganisms by 96-well microdilution minimal inhibitory concentration assay. After overnight culturing the bacteria and fungi in trypticase soy broth (TSB) and Saboraud (SAB) at 37° C. and 30° C., respectively, they were inoculated in new media and cultured for 2 hours to exponential growth phase. After diluting the microorganisms to 10^5 per 1 ml, 190 μl was inoculated in each 96-well plate, and 10 μl of serially diluted peptides were added in each well.

[2] = system: Candida albicans (ATCC 10231); conditions: ATCC 10231, 12 h
Excerpt: as §1, §2

[3] = system: Cryptococcus neoformans (ATCC 34881); conditions: ATCC 34881, 12 h
Excerpt: as §1, §2

[4] = system: Escherichia coli (ATCC 27325); conditions: ATCC 27325, 12 h
Excerpt: as §1, §2

[5] = system: Pseudomonas putida (ATCC 17426); conditions: ATCC 17426, 12 h
Excerpt: as §1, §2

[6] = system: Saccharomyces cerevisiae (ATCC 44774); conditions: ATCC 44774, 12 h
Excerpt: as §1, §2

[7] = system: Salmonella enteritidis (ATCC 15277); conditions: ATCC 15277, 12 h
Excerpt: as §1, §2

[8] = system: Staphylococcus aureus (ATCC 15752); conditions: ATCC 15752, 12 h
Excerpt: as §1, §2

[9] = system: Streptococcus mutans (ATCC 25175); conditions: ATCC 25175, 12 h
Excerpt: as §1, §2

Substance: RVVRQWPIGRVVRRVVRRVVR [compound 1]
- Minimum Inhibitory Concentration [1]: 2 µg/mL
- Minimum Inhibitory Concentration [2]: 2 µg/mL
- Minimum Inhibitory Concentration [3]: 1 µg/mL
- Minimum Inhibitory Concentration [4]: 1 µg/mL
- Minimum Inhibitory Concentration [5]: 1 µg/mL
- Minimum Inhibitory Concentration [6]: 2 µg/mL
- Minimum Inhibitory Concentration [7]: 1 µg/mL
- Minimum Inhibitory Concentration [8]: 1 µg/mL
- Minimum Inhibitory Concentration [9]: 2 µg/mL

Substance: KVLRKVLRKVLRNWPIGKVLR [compound 65]
- Minimum Inhibitory Concentration [1]: 2 µg/mL
- Minimum Inhibitory Concentration [2]: 1 µg/mL
- Minimum Inhibitory Concentration [3]: 1 µg/mL
- Minimum Inhibitory Concentration [4]: 1 µg/mL
- Minimum Inhibitory Concentration [5]: 1 µg/mL
- Minimum Inhibitory Concentration [6]: 1 µg/mL
- Minimum Inhibitory Concentration [7]: 2 µg/mL
- Minimum Inhibitory Concentration [8]: 1 µg/mL
- Minimum Inhibitory Concentration [9]: 2 µg/mL

Substance: KLLRKLLRKLLRNWPIGKLLR [compound 63]
- Minimum Inhibitory Concentration [1]: 1 µg/mL
- Minimum Inhibitory Concentration [2]: 1 µg/mL
- Minimum Inhibitory Concentration [3]: 1 µg/mL
- Minimum Inhibitory Concentration [4]: 1 µg/mL
- Minimum Inhibitory Concentration [5]: 1 µg/mL
- Minimum Inhibitory Concentration [6]: 2 µg/mL
- Minimum Inhibitory Concentration [7]: 2 µg/mL
- Minimum Inhibitory Concentration [8]: 1 µg/mL
- Minimum Inhibitory Concentration [9]: 2 µg/mL

Substance: RLLRQWPIGRLLRRLLRRLLR [compound 3]
- Minimum Inhibitory Concentration [1]: 2 µg/mL
- Minimum Inhibitory Concentration [2]: 1 µg/mL
- Minimum Inhibitory Concentration [3]: 1 µg/mL
- Minimum Inhibitory Concentration [4]: 2 µg/mL
- Minimum Inhibitory Concentration [5]: 1 µg/mL
- Minimum Inhibitory Concentration [6]: 2 µg/mL
- Minimum Inhibitory Concentration [7]: 1 µg/mL
- Minimum Inhibitory Concentration [8]: 1 µg/mL
- Minimum Inhibitory Concentration [9]: 1 µg/mL

Substance: RVLKQWPIGRVLKRVLKRVLK [compound 13]
- Minimum Inhibitory Concentration [1]: 2 µg/mL
- Minimum Inhibitory Concentration [2]: 1 µg/mL
- Minimum Inhibitory Concentration [3]: 1 µg/mL
- Minimum Inhibitory Concentration [4]: 1 µg/mL
- Minimum Inhibitory Concentration [5]: 1 µg/mL
- Minimum Inhibitory Concentration [6]: 2 µg/mL
- Minimum Inhibitory Concentration [7]: 1 µg/mL
- Minimum Inhibitory Concentration [8]: 1 µg/mL
- Minimum Inhibitory Concentration [9]: 2 µg/mL

Substance: KVLKNWPIGKVLKKVLKKVLK [compound 23]
- Minimum Inhibitory Concentration [1]: 1 µg/mL
- Minimum Inhibitory Concentration [2]: 1 µg/mL
- Minimum Inhibitory Concentration [3]: 1 µg/mL
- Minimum Inhibitory Concentration [4]: 1 µg/mL
- Minimum Inhibitory Concentration [5]: 1 µg/mL
- Minimum Inhibitory Concentration [6]: 1 µg/mL
- Minimum Inhibitory Concentration [7]: 2 µg/mL
- Minimum Inhibitory Concentration [8]: 1 µg/mL
- Minimum Inhibitory Concentration [9]: 2 µg/mL

Substance: RLLKRLLKRLLKQWPIGRLLK [compound 45]
- Minimum Inhibitory Concentration [1]: 1 µg/mL
- Minimum Inhibitory Concentration [2]: 2 µg/mL
- Minimum Inhibitory Concentration [3]: 2 µg/mL
- Minimum Inhibitory Concentration [4]: 1 µg/mL
- Minimum Inhibitory Concentration [5]: 1 µg/mL
- Minimum Inhibitory Concentration [6]: 2 µg/mL
- Minimum Inhibitory Concentration [7]: 2 µg/mL
- Minimum Inhibitory Concentration [8]: 1 µg/mL
- Minimum Inhibitory Concentration [9]: 1 µg/mL

Substance: KLLKKLLKKLLKNWPIGKLLK [compound 55]
- Minimum Inhibitory Concentration [1]: 1 µg/mL
- Minimum Inhibitory Concentration [2]: 1 µg/mL
- Minimum Inhibitory Concentration [3]: 1 µg/mL
- Minimum Inhibitory Concentration [4]: 2 µg/mL
- Minimum Inhibitory Concentration [5]: 1 µg/mL
- Minimum Inhibitory Concentration [6]: 2 µg/mL
- Minimum Inhibitory Concentration [7]: 1 µg/mL
- Minimum Inhibitory Concentration [8]: 1 µg/mL
- Minimum Inhibitory Concentration [9]: 2 µg/mL

Substance: KVLRNWPIGKVLRKVLRKVLR [compound 31]
- Minimum Inhibitory Concentration [1]: 1 µg/mL
- Minimum Inhibitory Concentration [2]: 1 µg/mL
- Minimum Inhibitory Concentration [3]: 1 µg/mL
- Minimum Inhibitory Concentration [4]: 1 µg/mL
- Minimum Inhibitory Concentration [5]: 1 µg/mL
- Minimum Inhibitory Concentration [6]: 2 µg/mL
- Minimum Inhibitory Concentration [7]: 1 µg/mL
- Minimum Inhibitory Concentration [8]: 1 µg/mL
- Minimum Inhibitory Concentration [9]: 2 µg/mL

Substance: KLLKQWPIGKLLKKLLKKLLK [compound 4]
- Minimum Inhibitory Concentration [1]: 2 µg/mL
- Minimum Inhibitory Concentration [2]: 1 µg/mL
- Minimum Inhibitory Concentration [3]: 1 µg/mL
- Minimum Inhibitory Concentration [4]: 1 µg/mL
- Minimum Inhibitory Concentration [5]: 1 µg/mL
- Minimum Inhibitory Concentration [6]: 2 µg/mL
- Minimum Inhibitory Concentration [7]: 1 µg/mL
- Minimum Inhibitory Concentration [8]: 1 µg/mL
- Minimum Inhibitory Concentration [9]: 1 µg/mL

Substance: RLVRRLVRRLVRNWPIGRLVR [compound 58]
- Minimum Inhibitory Concentration [1]: 1 µg/mL
- Minimum Inhibitory Concentration [2]: 2 µg/mL
- Minimum Inhibitory Concentration [3]: 1 µg/mL
- Minimum Inhibitory Concentration [4]: 1 µg/mL
- Minimum Inhibitory Concentration [5]: 1 µg/mL
- Minimum Inhibitory Concentration [6]: 2 µg/mL
- Minimum Inhibitory Concentration [7]: 1 µg/mL
- Minimum Inhibitory Concentration [8]: 1 µg/mL
- Minimum Inhibitory Concentration [9]: 1 µg/mL

Substance: KVVKKVVKKVVKQWPIGKVVK [compound 36]
- Minimum Inhibitory Concentration [1]: 1 µg/mL
- Minimum Inhibitory Concentration [2]: 2 µg/mL
- Minimum Inhibitory Concentration [3]: 1 µg/mL
- Minimum Inhibitory Concentration [4]: 2 µg/mL
- Minimum Inhibitory Concentration [5]: 1 µg/mL
- Minimum Inhibitory Concentration [6]: 2 µg/mL
- Minimum Inhibitory Concentration [7]: 1 µg/mL
- Minimum Inhibitory Concentration [8]: 1 µg/mL
- Minimum Inhibitory Concentration [9]: 2 µg/mL

Substance: KVVKNWPIGKVVKKVVKKVVK [compound 19]
- Minimum Inhibitory Concentration [1]: 2 µg/mL
- Minimum Inhibitory Concentration [2]: 1 µg/mL
- Minimum Inhibitory Concentration [3]: 1 µg/mL
- Minimum Inhibitory Concentration [4]: 2 µg/mL
- Minimum Inhibitory Concentration [5]: 1 µg/mL
- Minimum Inhibitory Concentration [6]: 2 µg/mL
- Minimum Inhibitory Concentration [7]: 1 µg/mL
- Minimum Inhibitory Concentration [8]: 1 µg/mL
- Minimum Inhibitory Concentration [9]: 1 µg/mL

Substance: KLVRQWPIGKLVRKLVRKLVR [compound 16]
- Minimum Inhibitory Concentration [1]: 2 µg/mL
- Minimum Inhibitory Concentration [2]: 1 µg/mL
- Minimum Inhibitory Concentration [3]: 1 µg/mL
- Minimum Inhibitory Concentration [4]: 1 µg/mL
- Minimum Inhibitory Concentration [5]: 1 µg/mL
- Minimum Inhibitory Concentration [6]: 1 µg/mL
- Minimum Inhibitory Concentration [7]: 1 µg/mL
- Minimum Inhibitory Concentration [8]: 1 µg/mL
- Minimum Inhibitory Concentration [9]: 2 µg/mL

Substance: KLVRQFPVGKLVRKLVRKLVR [compound 17]
- Minimum Inhibitory Concentration [1]: 2 µg/mL
- Minimum Inhibitory Concentration [2]: 1 µg/mL
- Minimum Inhibitory Concentration [3]: 1 µg/mL
- Minimum Inhibitory Concentration [4]: 1 µg/mL
- Minimum Inhibitory Concentration [5]: 1 µg/mL
- Minimum Inhibitory Concentration [6]: 1 µg/mL
- Minimum Inhibitory Concentration [7]: 1 µg/mL
- Minimum Inhibitory Concentration [8]: 1 µg/mL
- Minimum Inhibitory Concentration [9]: 2 µg/mL

Substance: RVVRNWPIGRVVRRVVRRVVR [compound 18]
- Minimum Inhibitory Concentration [1]: 1 µg/mL
- Minimum Inhibitory Concentration [2]: 1 µg/mL
- Minimum Inhibitory Concentration [3]: 1 µg/mL
- Minimum Inhibitory Concentration [4]: 1 µg/mL
- Minimum Inhibitory Concentration [5]: 1 µg/mL
- Minimum Inhibitory Concentration [6]: 1 µg/mL
- Minimum Inhibitory Concentration [7]: 2 µg/mL
- Minimum Inhibitory Concentration [8]: 1 µg/mL
- Minimum Inhibitory Concentration [9]: 2 µg/mL

Substance: RLLRRLLRRLLRNWPIGRLLR [compound 54]
- Minimum Inhibitory Concentration [1]: 1 µg/mL
- Minimum Inhibitory Concentration [2]: 1 µg/mL
- Minimum Inhibitory Concentration [3]: 1 µg/mL
- Minimum Inhibitory Concentration [4]: 2 µg/mL
- Minimum Inhibitory Concentration [5]: 1 µg/mL
- Minimum Inhibitory Concentration [6]: 2 µg/mL
- Minimum Inhibitory Concentration [7]: 1 µg/mL
- Minimum Inhibitory Concentration [8]: 1 µg/mL
- Minimum Inhibitory Concentration [9]: 2 µg/mL

Substance: KLVRQWPIGKLVRKLVRKLVR-NH2 [compound 69]
- Minimum Inhibitory Concentration [1]: 1 µg/mL
- Minimum Inhibitory Concentration [2]: 1 µg/mL
- Minimum Inhibitory Concentration [3]: 1 µg/mL
- Minimum Inhibitory Concentration [4]: 1 µg/mL
- Minimum Inhibitory Concentration [5]: 1 µg/mL
- Minimum Inhibitory Concentration [6]: 2 µg/mL
- Minimum Inhibitory Concentration [7]: 2 µg/mL
- Minimum Inhibitory Concentration [8]: 1 µg/mL
- Minimum Inhibitory Concentration [9]: 1 µg/mL

Substance: KLLKNWPIGKLLKKLLKKLLK [compound 21]
- Minimum Inhibitory Concentration [1]: 1 µg/mL
- Minimum Inhibitory Concentration [2]: 2 µg/mL
- Minimum Inhibitory Concentration [3]: 1 µg/mL
- Minimum Inhibitory Concentration [4]: 1 µg/mL
- Minimum Inhibitory Concentration [5]: 1 µg/mL
- Minimum Inhibitory Concentration [6]: 1 µg/mL
- Minimum Inhibitory Concentration [7]: 2 µg/mL
- Minimum Inhibitory Concentration [8]: 1 µg/mL
- Minimum Inhibitory Concentration [9]: 2 µg/mL

Substance: KLVRKLVRKLVRNFPVGKLVR [compound 68]
- Minimum Inhibitory Concentration [1]: 1 µg/mL
- Minimum Inhibitory Concentration [2]: 1 µg/mL
- Minimum Inhibitory Concentration [3]: 1 µg/mL
- Minimum Inhibitory Concentration [4]: 1 µg/mL
- Minimum Inhibitory Concentration [5]: 1 µg/mL
- Minimum Inhibitory Concentration [6]: 2 µg/mL
- Minimum Inhibitory Concentration [7]: 1 µg/mL
- Minimum Inhibitory Concentration [8]: 1 µg/mL
- Minimum Inhibitory Concentration [9]: 2 µg/mL
